Patent publication US6342499B1, “Parasitic and saprophagous mite control in beneficial insects” (BASF Aktiengesellschaft, priority 1998, dated 2002)

Assays:
Assay type in all cases: in vivo
[1] = tested on: Acarapis woodi (trachea mites); experiment: Example 3: tracheal mites walked across glass slides dipped in test compound; time to 100% mortality; details: slides dipped in 500 ppm acetone solution
Description: In this evaluation, honeybees (Apis mellifera) which are infested with Acarapis woodi (trachea mites) are dissected to remove the infested tracheae. Glass microscope slides are dipped into acetone solutions of test compound (500 ppm) and the acetone is allowed to evaporate. Infested tracheae are placed directly on the treated slides. The mites are removed from the tracheae by dissection and forced to walk across the treated area. The elapsed time is recorded for 100% mortality, i.e. no movement is observed upon agitation.

[2] = tested on: Drosophila melanogaster; experiment: Example 5: treated paper strips in mite-infested Drosophila culture vials; fly mortality; details: treated paper strip; for % Mortality Drosophila Adults: after 5 days at 25° C.; for % Mortality Drosophila larvae: after 15 days, percent of expected progeny vs untreated control
Description: (§1) Paper towel strips (2×7 cm) are dipped into an acetone solution of test compound and allowed to dry. Control paper towel strips are dipped into acetone and allowed to dry. Treated strips are placed in 2.5×9.5 cm culture vials containing a standard cornmeal-molasses-agar diet, such that the strips are inserted about 1 cm into the diet. Five pairs of heavily infested, newly emerged Drosophila melanogaster are placed into the test vials and incubated at 25° C. After 5 days, the adult flies are evaluated for % mortality and are removed rom each test vial. After 15 days, the mites [Proctoloaelaps sp.(Proct) and Histiostoma sp.(Hist)] and insect larva/pupa are evaluated for mortality and recorded as a percent of expected progeny as determined by the untreated control. At 14 days approximately 200-500 Histiostoma sp. mites (Hist) and approximately 50 Proctolaelaps sp. mites (Proct) are present in the untreated controls.

[3] = tested on: Histiostoma sp. mites (Hist); experiment: Example 5: treated paper strips in mite-infested Drosophila culture vials; Histiostoma mortality; details: treated paper strip, after 15 days, percent of expected progeny vs untreated control
Description: as §1

[4] = tested on: Proctolaelaps sp. mites (Proct); experiment: Example 5: treated paper strips in mite-infested Drosophila culture vials; Proctolaelaps mortality; details: treated paper strip, after 15 days, percent of expected progeny vs untreated control
Description: as §1

[5] = tested on: honeybees (Apis mellifera); experiment: Example 4: METI, topical treatment of honeybees from hives 70% infested with Varroa; bee mortality; details: 5 days at 31° C.
Description: (§2) Honeybees (Apis mellifera) taken from hives which are 70% infested with Varroa jacobsoni are chilled to immobilize the bees. A 1 μl droplet of an acetone solution of test compound is applied to the dorsal abdomen of each bee; control bees receive a 1 μl droplet of acetone. A total of 50-52 bees are treated for each dose rate tested. The treated bees are placed in an incubator at 31° C. in the dark and fed 50% sugar water ad libitum for 5 days. After incubation, the bees are examined for mortality and mite infestation.

[6] = tested on: Varroa jacobsoni; experiment: Example 4: METI, topical treatment of honeybees from hives 70% infested with Varroa; parasite mortality; details: 5 days at 31° C.
Description: as §2

Fc1ccc(Oc2cc(Oc3ccc(Cl)c(C(F)(F)F)c3)ncn2)cc1C(F)(F)F [C]
Time required in minutes to achieve 100% mortality ([1]; Rep. 1): 16 min | Time required in minutes to achieve 100% mortality ([1]; Rep. 2): 16 min | Time required in minutes to achieve 100% mortality ([1]; Rep. 3): 15 min | % Mortality Drosophila Adults ([2]; dose 10 ppm): 15% | % Mortality Drosophila larvae ([2]; dose 10 ppm): 0% | % Mortality Drosophila Adults ([2]; dose 50 ppm): 20% | % Mortality Drosophila larvae ([2]; dose 50 ppm): 53% | % Mortality Drosophila Adults ([2]; dose 100 ppm): 100% | % Mortality Drosophila larvae ([2]; dose 100 ppm): 73% | % Mortality Mites Hist ([3]; dose 10 ppm): 90% | % Mortality Mites Hist ([3]; dose 50 ppm): 100% | % Mortality Mites Hist ([3]; dose 100 ppm): 100% | % Mortality Mites Proct ([4]; dose 10 ppm): 40% | % Mortality Mites Proct ([4]; dose 50 ppm): 100% | % Mortality Mites Proct ([4]; dose 100 ppm): 100%

CC(C)(C)c1ccc(CCOc2ncnc3ccccc23)cc1 [Fenazaquin, fenazaquin]
% Mortality Bees ([5]; dose 0.012 μg/bee): 18% | % Mortality Bees ([5]; dose 0.12 μg/bee): 14% | % Mortality Bees ([5]; dose 1.2 μg/bee): 18% | % Mortality Parasites ([6]; dose 0.012 μg/bee): 19% | % Mortality Parasites ([6]; dose 0.12 μg/bee): 27% | % Mortality Parasites ([6]; dose 1.2 μg/bee): 87%

Cc1nn(C)c(Oc2ccccc2)c1C=NOCc1ccc(C(=O)OC(C)(C)C)cc1 [Fenpyroximate, fenpyroximate]
% Mortality Bees ([5]; dose 0.003 μg/bee): 13% | % Mortality Bees ([5]; dose 0.03 μg/bee): 10% | % Mortality Bees ([5]; dose 0.3 μg/bee): 24% | % Mortality Parasites ([6]; dose 0.003 μg/bee): 7% | % Mortality Parasites ([6]; dose 0.03 μg/bee): 30% | % Mortality Parasites ([6]; dose 0.3 μg/bee): 100%

CC(C)(C)c1ccc(CSc2cnn(C(C)(C)C)c(=O)c2Cl)cc1 [Pyridaben, pyridaben]
% Mortality Bees ([5]; dose 0.001 μg/bee): 12% | % Mortality Bees ([5]; dose 0.01 μg/bee): 10% | % Mortality Bees ([5]; dose 0.1 μg/bee): 20% | % Mortality Parasites ([6]; dose 0.001 μg/bee): 14% | % Mortality Parasites ([6]; dose 0.01 μg/bee): 0% | % Mortality Parasites ([6]; dose 0.1 μg/bee): 100%

CCCCCCCCCCCCC1=C(OC(C)=O)C(=O)c2ccccc2C1=O [Acequinocyl, acequinocyl]
% Mortality Bees ([5]; dose 0.1 μg/bee): 15% | % Mortality Bees ([5]; dose 1.0 μg/bee): 10% | % Mortality Bees ([5]; dose 10.0 μg/bee): 42% | % Mortality Parasites ([6]; dose 0.1 μg/bee): 12% | % Mortality Parasites ([6]; dose 1.0 μg/bee): 0% | % Mortality Parasites ([6]; dose 10.0 μg/bee): 83%
